# Source: US20200171056A1, “SULFONYLUREA COMPOUNDS IN THE TREATMENT OF DISEASE ASSOCIATED WITH UV-INDUCED DAMAGE” (CeMM - Forschungszentrum für Molekulare Medizin GmbH, priority 2017, published 2020)
# What was measured:
# Assay type in all cases: cell-based, human
# CPDs in XPA^Δ/Δ cells = test: Immunofluorescence for cyclobutane pyrimidine dimers; details: 0.5 mM for 6 hours
# Description: A. Dose-response curve of WT and ΔXPA cells treated with or without 0.5 mM acetohexamide for 6 hours, followed by illudin S treatment. Survival was assessed after 3 days using CellTiter-Glo. B. Colony formation of WT fibroblasts (BJ) and XPA-patient derived fibroblasts (XPA^Δ/Δ) treated with or without 0.5 mM acetohexamide for 6 hours, followed by UV irradiation (as indicated) and then kept in culture for 10 days. C. WT BJ and XPA^Δ/Δ fibroblastoid cells were treated with 0.5 mM acetohexamide for 6 hours, irradiated with 15 J/M^2 and then fixed and immunostained with an anti-cyclobutane pyrimidine dimer (CPD) antibody at the indicated times. Nuclear DNA was counterstained with DAPI. Scale bar, 10 μm. D. Scatter plot displaying the quantification of CPD intensities per nucleus of WT and XPA^Δ/Δ cells in the presence or absence of 0.5 mM acetohexamide, of more than 100 cells. Red lines within each column represent median intensities. A.u.=arbitrary unit.
# For measurement of cyclobutane pyrimidine dimers (CPDs), cells were seeded onto coverslips (VWR) in 5 cm dishes. On the following day, cells were treated as indicated. Next, they were washed twice with PBS and fixed with 4% paraformaldehyde (PFA) for 10 minutes at room temperature (RT), then permeabilized with 0.5% Triton X-100 in PBS for 5 minntes at RT. […] Quantification was performed using CellProfiler.
# WT HAP1 cells = test: Survival after other DNA damaging agents (MMC, HU, MMS); details: WT HAP1, 0.5 mM for 6 hours, 3 days
# Description: A. WT and ΔXPA cells were either treated with DMSO or 0.5 mM acetohexamide for 6 hours. Cell cycle profiles were determined using propidium iodide (P1) staining followed by FACS analysis. B-D. Survival of WT HAP1 cells treated with either DMSO or 0.5 mM acetohexamide for 6 hours, followed by exposure to the indicated DNA damaging agents (MMC: mitomycin C; HU: hydroxyl urea; MMS: methyl methanesulfonate). Survival was assessed after 3 days using CellTitre-Glo. E. Cell viability of WT cells treated either with 0.5 mM acetohexamide or 30 μM N-acetylcysteine (NAC) for 6 hours, followed by 30 J/M^2 UV exposure.
# Dose Responses and UV Treatment Dose-response curves for the DNA damage agents including mitomycin C (MMC), methyl methanesulfonate (MMS), hydroxyurea (HU), neocarzinostatin (NCS) and illudin S were performed in 96-well plates by seeding 1,000 cells/well in triplicates. The next day, compounds at different concentrations were added and 3 days later, cell viability was assessed using Cell Titer-Glo (Promega)
# MUTYH = MUTYH protein levels by immunoblotting; details: WT HAP1, 0.5 mM for 6 hours, alone or with 10 μM MG132 (FIG. 4A-B)
# Description: A. WT HAP1 cells were treated with or without 0.5 mM acetohexamide for 6 hours, then released into compound-free media for the indicated time points and immunoblotted with an anti-MUTYH antibody. ACTIN was used as a loading control. B. WT HAP1 cells were either treated with 0.5 mM acetohexamide alone or with 10 μM of the proteasome inhibitor MG132 for 6 hours and analyzed by immunoblotting using an anti-MUTYH antibody. C. Left panel: colony formation of the WT, ΔXPA or ΔXPA-MUTYH HAP1 cells treated with or without 0.5 mM acetohexamide for 6 hours, followed by 15 J/M^2 UV irradiation and then kept in culture for 10 days. Right panel: Macroscopic colonies were stained with crystal violet and quantified. D. WT, ΔXPA or ΔXPA-MUTYH HAP1 cells were treated with 15 J/M^2 UV or left untreated, then kept in culture for the indicated recovery times and analyzed by dot blot for the presence of CPDs within genomic DNA. E. Number of chromosomal abnormalities per metaphase spread of ΔXPA or ΔXPA-MUTYH HAP1 exposed to different doses of UV irradiation. Data in (E) represented as mean±SEM. F. Survival of WT and ΔMULE HAP1 cells exposed to UV irradiation at different doses and assessed after 3 days, using CellTitre-Glo.
# Cells were lysed in lysis buffer composed of RIPA lysis buffer supplemented with protease inhibitors (Sigma) and phosphatase inhibitors (Sigma, NEB). […]
structure (smiles),measurement,setting,value
CC(=O)c1ccc(S(=O)(=O)NC(=O)NC2CCCCC2)cc1 [acetohexamide],initial amount of CPDs,CPDs in XPA^Δ/Δ cells; 15 J/M^2 (FIG. 2C-D),did not affect the initial amount of CPDs
same,clearance of CPDs,"CPDs in XPA^Δ/Δ cells; XPA^Δ/Δ cells, 15 J/M^2, 24 hours post UV (FIG. 2C-D)",led to the clearance of CPDs in XPA^Δ/Δ cells
same,cellular survival following exposure to HU,WT HAP1 cells; then hydroxyurea,did not increase cellular survival
same,cellular survival following exposure to MMS,WT HAP1 cells; then methyl methanesulfonate,did not increase cellular survival
same,cellular survival following exposure to MMC,WT HAP1 cells; then mitomycin C,did not increase cellular survival
same,MUTYH protein levels,MUTYH,decrease in MUTYH protein levels in a proteasome dependent manner
